Drawing on ChEMBL document CHEMBL1134908, “Synthesis of cholesterol-carborane conjugate for targeted drug delivery” (Bioorg Med Chem Lett, 2002), this text covers Viable cells for 1 substance.

This experiment relates to Cancer cell lines. As to the kind of experiment: The cytotoxicity in liposomal formulation was determined on the SF-763 human glioma cancer cell line. The class given is functional, cell-based.

For the substance “Cholesteryl 1,12-dicarba-closo-dodecaborane-1-carboxylate (BCH)”, the Viable cells was determined as 98.5%.
